The source of these data is patent publication US10328051B2, “Proline or proline derivatives for the treatment of dementia” (priority 2014, dated 2019).

For the data set, the system named is patients with mild or moderate Alzheimer's disease and Dementia. The experiment in a line: Physical and cognitive conditions and Quality of Life questionnaire in patients with mild and moderate Alzheimer's disease (Example 13). In kind it is in vivo, human. An excerpt:
Example 13—Physical, and Cognitive Conditions—Alzheimer—Dementia Measure and Quality of Life (QoL) (FIGS. 13.1, 13.2, 13.3)
According to the ICH-GCP requirements for assessment of the Quality of Life (QoL) the validated questionnaire related to the disease e.g. cancer have been administered in the Phase II clinical studies: IPSS-A04, according to the example 12.1 in this invention.
Additional developed modules to these questionnaire provided greater details on the particular aspects of quality of life for those patients who participated in these clinical studies and diagnosed with mild and moderate Alzheimer's disease based on the presence of neuropsychiatric symptoms.
Diagnosis begun with a thorough physical exam and complete medical history including cerebrovascular disease and supplemental information from family members. Simple tests of mental function, including word recall, object naming, and number symbol marching, were used to track changes in the patient's cognitive ability. Ruling out depression was part of the diagnosis. Eight (8) patients over the age of 65 years met these criteria and have been selected for the assessment of CHP effects on the quality of life according to the items mentioned below including the cognitive status.
The administration of intravenous (iv) and oral CHP as monotherapy has been scheduled according to examples 12.1 in this invention in the patient's group G2—in study IPSS-A04.
The assessment of the QoL, physical, and cognitive conditions—Alzheimer-Dementia has been completed by the patients/care providers in the following intervals (FIGS. 13.1-13.3):
Pre-dose: Prior to the start of treatment with CHP as monotherapy
Start and completion of treatment with CHP: The questionnaire has been completed every 4 weeks after the start of treatment (Week 4, 8, 12, 16, 20, 24) and 4 weeks upon the completion of the treatment with CHP as monotherapy. A scale value is given for each response that reflects a good quality of life. […] A higher score reflects a higher quality of life. The 5 domains of Quality of Life—Alzheimer's Disease-Dementia included are: 1. Enjoyment of activities, 2. Feelings and mood, 3. Awareness of self, 4. Social Interactions, 5. Illness global QoL.
The following modified QLQ-C30 Version 1.0 has been used for the recording and assessment of the patient's conditions prior to and after the treatment with CHP.

Where [1] appears, read: after completion of treatment, 8 patients, pre dose 0.
Where [2] appears, read: after completion of treatment, 8 patients, pre dose 3.
The mark [3] stands for this setting: after completion of treatment, 8 patients, pre-dose 0.

Consider `O=C(O)[C@@H]1C[C@H](O)CN1` [CHP, cis-4-hydroxy-L-proline], for which, under setting [1], the “Overall Physical Condition: number of patients rating 5” value is listed as 5, the “Overall Physical Condition: number of patients rating 6” value is 1, the “Overall Physical Condition: number of patients rating 7” value is 0 and the “Overall Quality of Life (QoL): number of patients rating 4” value worked out at 3. Besides, under setting [1], the “Overall Quality of Life (QoL): number of patients rating 5” value was found to be 3, the “Overall Quality of Life (QoL): number of patients rating 6” value is 2 and the “Overall Quality of Life (QoL): number of patients rating 7” value is 0. In addition, under setting [2], the “Overall Physical Condition: number of patients rating 3” value is 1, the “Overall Physical Condition: number of patients rating 4” value was determined as 1 and the “Overall Quality of Life (QoL): number of patients rating 3” value was determined as 0. For the same molecule, under setting [3], the “Overall Cognitive Conditions: number of patients rating 5” value is on record as 3, the “Overall Cognitive Conditions: number of patients rating 6” value amounted to 1 and the “Overall Cognitive Conditions: number of patients rating 7” value is 0. Moreover, the “Overall Cognitive Conditions: number of patients rating 4” value (after completion of treatment, 8 patients, pre-dose 1) was found to be 3. Besides, the “Overall Cognitive Conditions: number of patients rating 3” value (after completion of treatment, 8 patients, pre-dose 3) is 1. The “Overall Physical Condition: number of patients rating 2” value (after completion of treatment, scale 1 = Very poor 7 = Excellent, 8 patients, pre dose 2) was determined as 0. For the setting “after completion of treatment, scale 1 = Very poor 7 = Excellent, 8 patients, pre dose 5”, the “Overall Quality of Life (QoL): number of patients rating 2” value is reported as 0. Moreover, for the setting “after completion of treatment, scale 1 = Very poor 7 = Excellent, 8 patients, pre-dose 4”, the “Overall Cognitive Conditions: number of patients rating 2” value is listed as 0. Also, the “Cognitive, physical, emotional conditions and quality of life in comparison to status prior to the start of the treatment” value (oral and/or intravenous CHP monotherapy, 90-540 consecutive days, 2-12 gram per day, mild or moderate Alzheimer's disease and dementia) is on record as “significant improvement”. Also, the Adverse events entry (patients with mild or moderate Alzheimer's disease) is “Only mild adverse events”.
